# In US11235976B2, “Nanocarbon-iron composite system as well as composition, preparation method and use thereof” (Chongqing Lummy Pharmaceutical Co., LTD, priority 2017, dated 2022):
# Key:
# Test in all cases: Cell experiment, cell survival rate
# Format in all cases: cell-based
# Settings in all cases: 48 h
# A549 lung cancer cells = tested on: A549 lung cancer cells
# Protocol: (§1) Cells growing in a log phase are collected, the concentration of the cell suspension is adjusted, 100 μL of cell suspension is added to each well and the cells are plated (edge wells are filled with sterile PBS) at a density of 1×10^3-10^4 cells/well. The cells are incubated for 24 hours at 37° C. under the condition of 5% CO2, a nanocarbon-iron solution having a concentration gradient (nanocarbon content: 125, 62.5, 15.63 and 3.91 μg/mL; and ferric ion content: 13.65, 6.83, 1.71 and 0.43 μg/mL) is added, and three sub-wells are set. Then the cells are incubated for 48 hours at 37° C. under the condition of 5% CO2. 10 μL of CCK8 solution is added to each well and then the cells are continuously incubated for 2 hours. The absorbance of each well is measured at OD=450 nm with the microplate reader. In addition, a negative control group, nanocarbon control groups having the same concentration and iron preparation control groups having the same concentration are set.
# as §1, with “and 1” for “100”, “of a 6-well plate” for “and the cells are plated (edge wells are filled with sterile PBS)”, “3×10^4” for “1×10^3-10^4”, “1.71,” for “1.71 and”, “The” for “10 μL of CCK8 solution is added to each well and then the”, “trypsinized and counted.” for “continuously incubated for 2 hours. The absorbance of each well is measured at OD=450 nm with the microplate reader.”
# [1] = tested on: HCT116 colon cancer cells
# Protocol: as §1
# as §1, with “and 1” for “100”, “of a 6-well plate” for “and the cells are plated (edge wells are filled with sterile PBS)”, “3×10^4” for “1×10^3-10^4”, “1.71,” for “1.71 and”, “The” for “10 μL of CCK8 solution is added to each well and then the”, “trypsinized and counted.” for “continuously incubated for 2 hours. The absorbance of each well is measured at OD=450 nm with the microplate reader.”
# [2] = tested on: Hela cervical cancer cells
# Protocol: as §1
# as §1, with “and 1” for “100”, “of a 6-well plate” for “and the cells are plated (edge wells are filled with sterile PBS)”, “3×10^4” for “1×10^3-10^4”, “1.71,” for “1.71 and”, “The” for “10 μL of CCK8 solution is added to each well and then the”, “trypsinized and counted.” for “continuously incubated for 2 hours. The absorbance of each well is measured at OD=450 nm with the microplate reader.”
# [3] = tested on: MDA-MB-231 breast cancer cells
# Protocol: as §1
# as §1, with “and 1” for “100”, “of a 6-well plate” for “and the cells are plated (edge wells are filled with sterile PBS)”, “3×10^4” for “1×10^3-10^4”, “1.71,” for “1.71 and”, “The” for “10 μL of CCK8 solution is added to each well and then the”, “trypsinized and counted.” for “continuously incubated for 2 hours. The absorbance of each well is measured at OD=450 nm with the microplate reader.”
# [4] = tested on: SGC-7901 stomach cancer cells
# Protocol: as §1
# as §1, with “and 1” for “100”, “of a 6-well plate” for “and the cells are plated (edge wells are filled with sterile PBS)”, “3×10^4” for “1×10^3-10^4”, “1.71,” for “1.71 and”, “The” for “10 μL of CCK8 solution is added to each well and then the”, “trypsinized and counted.” for “continuously incubated for 2 hours. The absorbance of each well is measured at OD=450 nm with the microplate reader.”
# [5] = tested on: SKOV3 ovarian cancer cells
# Protocol: as §1
# as §1, with “and 1” for “100”, “of a 6-well plate” for “and the cells are plated (edge wells are filled with sterile PBS)”, “3×10^4” for “1×10^3-10^4”, “1.71,” for “1.71 and”, “The” for “10 μL of CCK8 solution is added to each well and then the”, “trypsinized and counted.” for “continuously incubated for 2 hours. The absorbance of each well is measured at OD=450 nm with the microplate reader.”
# [6] = iron preparation alone 0.43 μg/mL
# [7] = iron preparation alone 1.71 μg/mL
# [8] = iron preparation alone 6.83 μg/mL
# [9] = iron preparation alone 13.65 μg/mL
substance,measurement,setting,value
ferrous sulfate,Cell Survival Rate,A549 lung cancer cells; [6],100%
same,Cell Survival Rate,A549 lung cancer cells; [7],94.18%
same,Cell Survival Rate,A549 lung cancer cells; [8],95.12%
same,Cell Survival Rate,A549 lung cancer cells; [9],100%
same,Cell Survival Rate,[1]; [6],98.32%
same,Cell Survival Rate,[1]; [7],100%
same,Cell Survival Rate,[1]; [8],97.68%
same,Cell Survival Rate,[1]; [9],94.07%
same,Cell Survival Rate,[2]; [6],100%
same,Cell Survival Rate,[2]; [7],100%
same,Cell Survival Rate,[2]; [8],100%
same,Cell Survival Rate,[2]; [9],93.99%
same,Cell Survival Rate,[3]; [6],100%
same,Cell Survival Rate,[3]; [7],100%
same,Cell Survival Rate,[3]; [8],100%
same,Cell Survival Rate,[3]; [9],100%
same,Cell Survival Rate,[4]; [6],100%
same,Cell Survival Rate,[4]; [7],93.78%
same,Cell Survival Rate,[4]; [8],98.42%
same,Cell Survival Rate,[4]; [9],100%
same,Cell Survival Rate,[5]; [6],97.89%
same,Cell Survival Rate,[5]; [7],100%
same,Cell Survival Rate,[5]; [8],95.78%
